SMILES strings stand for the structures. Several values for one entry are separate records, joined by “and”; a condition that tells them apart may be missing. Equal entries are not always repeated.

Assay in all cases: Pot-culture stem and leaf treatment, fresh weight inhibition (Gowing method)
What all share (type): in vivo

The test system of one test is Echinochloa crusgalli. From the text:
(§1) Echinochloa crusgalli, Setaria viridis, Chenopodium album, Amaranthus retrollexus were collected from corn fields in Qingdao of Shandong Province. Sonchus brachyotus were collected from corn fields in Shenyang of Liaoning Province. Rhizoma Cyperi, Convolvulus arvensis were collected from corn fields in Shangqiu of Henan Province. Cirsium setosum were collected from corn fields in Xiantao of Hubei Province.
(§2) The above weeds were cultivated by a pot culture method. […] Full and uniform weed seeds were selected, soaked in warm water at 25° C. for 6 hours, and germinated in a 28° C. biochemical incubator (darkness). The weed seeds that had just germinated were evenly placed on the surface of the soil and then covered with 0.7 cm soil, and cultured in a controllable sunlight greenhouse after being treated with agents. A certain amount of water was added to the enamel pan regularly to keep the soil moist.
(§3) The culture was carried out in a controllable sunlight greenhouse at 18 to 30° C., in natural light, and relative humidity of 57% to 72%.
(§4) The technical materials were all dissolved in acetone, and diluted with an aqueous solution containing 0.1% emulsifier T-80. The dilution is performed as required.
(§5) 3 pots with 20 weed seeds per pot were treated in one treatment with […] per treatment, that is, a total of 60 weeds were treated in one treatment.
(§6) The agents were used for only once in the experiment. In the stage of weeds with 2 leaves and 1 core, the weeds were thinned out to maintain 15 weeds per pot and 45 weeds for each treatment, then continued to be cultured to 5-leaves and 1-core stage of Echinochloa crusgalli and Setaria viridis, and treated.
(§7) The well-cultured weeds were evenly placed on a platform with an area of 0.5 m^2, and a solution of agents was sprayed on the stems and leaves thereof by the 3WP-2000-type walking spray tower at a dosage of 30 kg/ha and at a spray pressure of 0.3 MPa. After all the solution was sprayed, the valve was closed. After 30 seconds, the door of the spray tower was opened, and the nutritional bowl was taken out. Then the valve was opened, and the spray tube was cleaned by spraying 50 ml of water.
(§8) A pot-culture method was employed. For the cultivation of weeds, please refer to the Section 1.1, and “Pesticide guidelines for laboratory bioactivity tests—herbicides”. As to a method for applying agents, please refer to the section 2.3.2, that is, a method for treating stems and leaves was employed.
(§9) A method for investigating absolute number was employed, wherein whole seedlings of survival weeds were cut off with a blade along the soil surface, and the fresh weight of the weeds was weighed with an analytical balance. For dead weeds, the fresh weight thereof was zero.
(§10) The investigation was performed after 20 days of the treatment for only once.
(§11) An optimum ratio of the two active ingredients was determined by the actual control effect, characteristics of herbicides, and balance of a corresponding formula.
(§12) Wherein, in the formula, X represented the fresh weight inhibition rate of A in a dosage of P, and Y represented the fresh weight inhibition rate of the active ingredient B in a dosage of Q.

For a further test, the system named is Setaria viridis.
Source text: as §1, §2, §3, §4, §5, §6, §7, §8, §9, §10, §11, §12

Another test has as its system Cirsium setosum.
Source text: as §1, §2, §3, §4, §5, §6, §7, §8, §9, §10, §11, §12

A further test has as its system Convolvulus arvensis.
Source text: as §1
(§13) The above weeds were cultivated by a pot culture method. […] Full and uniform weed seeds were selected, soaked in warm water at 25° C. for 6 hours, and germinated in a 28° C. biochemical incubator (darkness). […] A certain amount of water was added to the enamel pan regularly to keep the soil moist.
as §4, §5, §6, §7, §8, §9, §10, §12

In a further test the test system is Rhizoma Cyperi.
Source text: as §1, §2, §3, §4, §5, §6, §7, §8, §9, §10, §11, §12

The subject of a further test is Amaranthus retrollexus. Particulars: Amaranthus retroflexus.
Source text: as §1, §13, §4, §5, §6, §7, §8, §9, §10, §12

The subject of the next test is Chenopodium album. As to conditions: for actual fresh weight inhibition rate (%): Chenopodium album.
Source text: as §1, §13, §4, §5, §6, §7, §8, §9, §10, §12

The test system of another test is Sonchus brachyotus.
Source text: as §1, §13, §4, §5, §6, §7, §8, §9, §10, §12

The mark [1] stands for this setting: dosage of active ingredient 45 g/hm^2.
Setting [2] is: dosage of active ingredient 90 g/hm^2.
Where [3] appears, read: dosage of active ingredient 180 g/hm^2.
Where [4] appears, read: dosage of active ingredient 112.5 g/hm^2.
The mark [5] stands for this setting: dosage of active ingredient 225 g/hm^2.
Where [6] appears, read: dosage of active ingredient 450 g/hm^2.

Regarding `CCc1cccc(C)c1N(C(=O)CCl)[C@@H](C)COC` [s-metolachlor], the “actual fresh weight inhibition rate” value amounted to 2.5% with Echinochloa crusgalli (dosage 375 g/hm^2); 3.4% in the test on Echinochloa crusgalli (dosage 750 g/hm^2); 5.6% with Echinochloa crusgalli (dosage 1500 g/hm^2); 2.9% in the test with Setaria viridis (dosage 375 g/hm^2); 3.9% with Setaria viridis (dosage 750 g/hm^2); 6.2% with Setaria viridis (dosage 1500 g/hm^2).

For `O=C(Nc1ccc(F)cc1F)c1cccnc1Oc1cccc(C(F)(F)F)c1` [diflufenican], the “actual fresh weight inhibition rate” value came to 7.2% in the test on Echinochloa crusgalli (dosage 75 g/hm^2); 9.4% in the test with Echinochloa crusgalli (dosage 150 g/hm^2); 10.3% in the test with Echinochloa crusgalli (dosage 300 g/hm^2); 3.9% in the test on Setaria viridis (dosage 75 g/hm^2); 8.3% in the test on Setaria viridis (dosage 150 g/hm^2); 10.5% with Setaria viridis (dosage 300 g/hm^2).

Consider `CSc1nnc(C(C)(C)C)c(=O)n1N` [metribuzin], for which the “actual fresh weight inhibition rate” value in the test with Echinochloa crusgalli (dosage 112.5 g/hm^2) was 22.4%; in the test with Echinochloa crusgalli (dosage 225 g/hm^2) it was 32.1%; in the test with Echinochloa crusgalli (dosage 450 g/hm^2) it was 42.5%; with Setaria viridis (dosage 112.5 g/hm^2), 21.5%; in the test with Setaria viridis (dosage 225 g/hm^2) it was 33.6%; with Setaria viridis (dosage 450 g/hm^2) it was 43.5%.

With `CCNc1nc(Cl)nc(NC(C)C)n1` [atrazine], the “actual fresh weight inhibition rate” value with Echinochloa crusgalli (dosage 375 g/hm^2) was 20.3%; in the test on Echinochloa crusgalli (dosage 750 g/hm^2) it was 34.2%; in the test on Echinochloa crusgalli (dosage 1500 g/hm^2), 45.1%; with Setaria viridis (dosage 375 g/hm^2) it was 21.3%; in the test on Setaria viridis (dosage 750 g/hm^2), 31.4%; with Setaria viridis (dosage 1500 g/hm^2), 41.4%.

As to `CCNc1nc(Cl)nc(NC(C)(C)C)n1` [terbuthylazine], the “actual fresh weight inhibition rate” value is 31.4% in the test on Echinochloa crusgalli (dosage 375 g/hm^2); 42.1% in the test with Echinochloa crusgalli (dosage 750 g/hm^2); 51.7% in the test on Echinochloa crusgalli (dosage 1500 g/hm^2); 25.2% in the test with Setaria viridis (dosage 375 g/hm^2); 30.6% in the test on Setaria viridis (dosage 750 g/hm^2); 42.3% in the test with Setaria viridis (dosage 1500 g/hm^2).

In the case of `Nc1c(Cl)c(F)nc(OCC(=O)O)c1Cl` [fluroxypyr], the “actual fresh weight inhibition rate” value with Cirsium setosum (dosage 60 g/hm^2) was found to be 56.2%; in the test on Cirsium setosum (dosage 120 g/hm^2), 79.2%; in the test on Cirsium setosum (dosage 240 g/hm^2) it was 95.4%; with Convolvulus arvensis (dosage 60 g/hm^2), 63.2%; with Convolvulus arvensis (dosage 120 g/hm^2) it was 78.2%; in the test with Convolvulus arvensis (dosage 240 g/hm^2), 92.2%.

For `CCn1ncc(C(=O)c2ccc(S(C)(=O)=O)c(COCC(F)(F)F)c2Cl)c1OC(=O)c1cn(C)nc1C` [A1], the “actual fresh weight inhibition rate” value in the test on Cirsium setosum (dosage 45 g/hm^2) was 19.3%; in the test with Cirsium setosum (dosage 90 g/hm^2), 20.4%; with Cirsium setosum (dosage 180 g/hm^2), 38.5%; in the test on Echinochloa crusgalli (dosage 45 g/hm^2), 54.2% and 42.4%; in the test with Echinochloa crusgalli (dosage 90 g/hm^2), 82.1% and 83.5%; in the test on Echinochloa crusgalli (dosage 180 g/hm^2), 100%. The “actual fresh weight inhibition rate” value in the test with Rhizoma Cyperi (dosage 45 g/hm^2) is 22.8%; in the test with Rhizoma Cyperi (dosage 90 g/hm^2) it was 31.1%; in the test with Rhizoma Cyperi (dosage 180 g/hm^2), 44.2%; with Setaria viridis (dosage 45 g/hm^2), 45.7% and 42.1% and 39.9%; with Setaria viridis (dosage 90 g/hm^2) it was 81.6% and 80.3% and 81.2%; in the test with Setaria viridis (dosage 180 g/hm^2), 100%. The “actual fresh weight inhibition rate” value is recorded as 19.1% in the test on Chenopodium album (dosage 45 g/hm^2); 30.2% in the test with Chenopodium album (dosage 90 g/hm^2); 48.7% with Chenopodium album (dosage 180 g/hm^2); 23.2% with Convolvulus arvensis (dosage 45 g/hm^2); 38.9% in the test on Convolvulus arvensis (dosage 90 g/hm^2); 48.2% in the test with Convolvulus arvensis (dosage 180 g/hm^2). Moreover, the entries for the “actual fresh weight inhibition rate” value in the test with Sonchus brachyotus (dosage 45 g/hm^2), in the test on Sonchus brachyotus (dosage 90 g/hm^2) and in the test with Sonchus brachyotus (dosage 180 g/hm^2) were 32.1%, 53.2% and 78.8%, respectively. In addition, the “actual fresh weight inhibition rate (%)” value is recorded as 45.7% with Amaranthus retrollexus (setting [1]); 81.6% in the test with Amaranthus retrollexus (setting [2]); 100% in the test on Amaranthus retrollexus (setting [3]); 19.1% with Chenopodium album (setting [1]); 30.2% in the test on Chenopodium album (setting [2]); 48.7% in the test on Chenopodium album (setting [3]).

Consider `CCCCCCCC(=O)Oc1c(Br)cc(C#N)cc1Br` [bromoxynil octanoate], for which the “actual fresh weight inhibition rate” value in the test with Convolvulus arvensis (dosage 112.5 g/hm^2) came out at 58.9%; in the test on Convolvulus arvensis (dosage 225 g/hm^2) it was 79.2%; with Convolvulus arvensis (dosage 450 g/hm^2) it was 98.1%; in the test on Sonchus brachyotus (dosage 112.5 g/hm^2), 56.2%; in the test with Sonchus brachyotus (dosage 225 g/hm^2), 78.3%; with Sonchus brachyotus (dosage 450 g/hm^2), 99.2%.

Consider `COc1cc(OC)nc(NC(=O)NS(=O)(=O)c2ncccc2C(=O)N(C)C)n1` [nicosulfuron], for which the “actual fresh weight inhibition rate” value was 33.1% with Echinochloa crusgalli (dosage 15 g/hm^2); 74.5% in the test on Echinochloa crusgalli (dosage 30 g/hm^2); 100% with Echinochloa crusgalli (dosage 60 g/hm^2); 45.7% in the test on Setaria viridis (dosage 15 g/hm^2); 79.6% in the test with Setaria viridis (dosage 30 g/hm^2); 100% with Setaria viridis (dosage 60 g/hm^2).

With `CC(C)N1C(=O)c2ccccc2NS1(=O)=O` [bentazone], the “actual fresh weight inhibition rate” value in the test with Rhizoma Cyperi (dosage 150 g/hm^2) turned out to be 65.3%; with Rhizoma Cyperi (dosage 300 g/hm^2), 83.5%; with Rhizoma Cyperi (dosage 600 g/hm^2), 92.1%; with Chenopodium album (dosage 150 g/hm^2), 56.5%; in the test with Chenopodium album (dosage 300 g/hm^2) it was 75.9%; in the test with Chenopodium album (dosage 600 g/hm^2), 94.3%.

Regarding `COC(=O)c1c(Cl)nn(C)c1S(=O)(=O)NC(=O)Nc1nc(OC)cc(OC)n1` [halosulfuron-methyl], the “actual fresh weight inhibition rate” value in the test with Rhizoma Cyperi (dosage 15 g/hm^2) is reported as 67.2%; in the test with Rhizoma Cyperi (dosage 30 g/hm^2), 89.3%; in the test with Rhizoma Cyperi (dosage 60 g/hm^2) it was 100%.

Turning to `CCCCOCN(C(=O)CCl)c1c(CC)cccc1CC` [butachlor], the “actual fresh weight inhibition rate” value was determined as 2.4% in the test with Echinochloa crusgalli (dosage 375 g/hm^2); 3.9% with Echinochloa crusgalli (dosage 750 g/hm^2); 5.4% with Echinochloa crusgalli (dosage 1500 g/hm^2); 2.7% with Setaria viridis (dosage 375 g/hm^2); 3.8% in the test on Setaria viridis (dosage 750 g/hm^2); 5.9% in the test on Setaria viridis (dosage 1500 g/hm^2).

For the compound `CC(C)c1nn(C(=O)NC(C)(C)C)c(=O)n1N` [amicarbazone], the “actual fresh weight inhibition rate (%)” value is recorded as 21.6% in the test on Amaranthus retrollexus (setting [4]); 31.9% in the test with Amaranthus retrollexus (setting [5]); 41.8% in the test on Amaranthus retrollexus (setting [6]); 36.5% with Chenopodium album (setting [4]); 45.9% in the test on Chenopodium album (setting [5]); 64.3% in the test on Chenopodium album (setting [6]).

For `COc1c(Cl)ccc(Cl)c1C(=O)O` [dicamba], the “actual fresh weight inhibition rate” value in the test on Chenopodium album (dosage 75 g/hm^2) came out at 66.2%; in the test on Chenopodium album (dosage 150 g/hm^2), 85.3%; in the test with Chenopodium album (dosage 300 g/hm^2), 100%; in the test on Convolvulus arvensis (dosage 75 g/hm^2), 64.4%; with Convolvulus arvensis (dosage 150 g/hm^2), 78.9%; in the test on Convolvulus arvensis (dosage 300 g/hm^2), 92.8%.

The values are drawn from patent US10729133B2, “Cornfield herbicidal composition and application thereof” (priority 2016, dated 2020).
